According to patent US11952364B2, “TRK inhibitors useful as anticancer drugs” (TYLIGAND BIOSCIENCE (SHANGHAI) LIMITED, priority 2018, dated 2024):
Where two headings read alike, the source gives them in different places.

Columns and labels:
KM12 cells = assay: Proliferation of KM12 cells (CellTiter-Glo); assay type: cell-based, human; settings: read-out: KM-12, IC50
From the text: KM12 is a human colon cancer cell line in which NTRK1 is highly expressed, and gene fusion occurs with TPM3 to form TPM3-NTRK1. • [Test method]: Promega's CellTiter-Glo® Luminescent Cell Viability Assay kit was used to evaluate the inhibitory activity of the compounds on the proliferation of KM12 cells. • [Instrument]: Spectramax M3 multifunctional microplate reader from Molecular Devices. • [Test materials]: KM12 cell line (ATCC, item number CRL-12496), 96-well transparent flat-bottomed black-walled cell culture plate (Corning, item number #3603), RPMI-1640 media (GE, cat #SH30027.01), Fetal Bovine Serum FBS (Thermo Fisher, cat #10099-141), CellTiter-Glo® Luminescent Cell Viability Assay Kit (Promega, cat #G7572), PBS (Solarbio, cat #P1020), Trypsin (Thermo Fisher, cat #25200072), DMSO (Sigma, cat #D2650). • [Experimental procedure]: When resuscitating KM12 cells, the freezing tube was quickly shaken in a 37° C. water bath to melt within 1 minute. The thawed cell suspension was mixed uniformly with RPMI1640 medium containing 10% FBS, centrifuged at 1000 rpm for 5 minutes, and the supernatant discarded. 5 mL of complete medium (RPMI1640 medium with 10% FBS) was taken to resuspend the cell pellets, charged into a cell culture flask with a bottom area of 25 cm^2, and incubated in a cell incubator at 37° C., 95% humidity and 5% CO2. Cells were allowed to passage when the cell confluence rate reached about 80%. For cell passage, the old medium was discarded, and the cells were washed twice with PBS, and 0.5 mL trypsin was added to digest the cells. Upon dispersing into single cells and exfoliating from the bottom of the cell culture flask, 4.5 mL of new complete medium was added to terminate the digestion. After pipetting the cell suspension evenly, 1/5 of the cell suspension was kept and added with 4 mL of new complete medium, and after pipetting evenly, the cell flask was placed in the cell incubator for further culturing. Cell plating was performed when the cell confluence rate reached about 80% again. For cell plating, 1/5 of the cell suspension was kept for further culturing as in the cell passage method, and the remaining 4/5 of the cell suspension was placed in a 15 mL centrifuge tube, detected for cell viability by Trypan blue exclusion method to ensure that cell viability was above 90%. A cell suspension with a density of 3.33×10^4 viable cells/mL was prepared with complete medium, and 90 μL of such cell suspension was added to a 96-well cell culture plate to obtain a cell density of 3000 viable cells/mL in the cell culture plate. A control group containing no cells, no compound and only complete medium (i.e. culture medium control) and a control group containing no compound but containing cells (i.e. cell control) were set. The cell plate was placed in a cell incubator overnight.
The 10 mM compound stock solution in DMSO was first serially diluted with DMSO at a dilution factor of 3.16 times, to obtain 9 concentrations, and the 10th concentration was set as DMSO control without compound. Then, PBS was used to dilute the DMSO solutions of compounds of different concentrations, at a dilution factor of 100 times, so that the DMSO concentration in the compound solution of each concentration was 1%. Finally, 10 μL of each of the above solutions was added to the corresponding cell culture plate, so that the initial compound concentration was 10 μM, with the remaining concentrations being successively diluted at a dilution factor of 3.16 times, and the DMSO content in the cell culture plate was 0.1%.
The cell plate was placed in a cell incubator and cultured for 72 hours. For endpoint detection, the CellTiter-Glo reagent was melted, and the cell plate was moved to room temperature to equilibrate for 30 minutes, added with 100 μL of CellTiter-Glo for each well, and shaken on an orbital shaker for 5 minutes to fully lyse the cells. […]

[1] = test system: Ba/F3 ETV6-NTRK3-G696C cells; assay: Proliferation of Ba/F3 ETV6-NTRK3-G696C cells (CellTiter-Glo); assay type: cell-based, mouse; settings: Mus musculus, BaF3, Table 7-2; separate test; read-out: Ba/F3 ETV6-NTRK3-G696C, IC50
From the text: Ba/F3 ETV6-NTRK3-G696C is a stable transgenic cell line constructed by KYinno Biotechnology Co., Ltd. on mouse primary B cell Ba/F3 wherein NTRK3 is highly expressed with a mutation of G at position […] to C and fused with ETV6 to form ETV6-NTRK3. • [Test method]: Promega's CellTiter-Glo® Luminescent Cell Viability Assay kit was used to evaluate the inhibitory activity of the compounds on the proliferation of Ba/F3 ETV6-NTRK3-G696C cells. • [Instrument]: Spectramax M3 multifunctional microplate reader from Molecular Devices. • [Test materials]: Ba/F3 ETV6-NTRK3-G696C cell line (constructed by KYinno Biotechnology Co., Ltd. (Beijing)), 96-well transparent flat-bottomed black-walled cell culture plate (Corning, cat #3603), RPMI-1640 media (GE, product number #SH30027.01), fetal bovine serum FBS (Thermo Fisher, cat #10099-141), CellTiter-Glo® Luminescent Cell Viability Assay kit (Promega, cat #G7572), PBS (Solarbio, cat #P1020), DMSO (Sigma, cat #D2650). • [Experimental procedure]: When resuscitating Ba/F3 ETV6-NTRK3-G696C cells, • the freezing tube was quickly shaken in a 37° C. water bath to melt within 1 minute. The thawed cell suspension was mixed uniformly with RPMI1640 medium containing 10% FBS, centrifuged at 1000 rpm for 5 minutes, and the supernatant discarded. 5 mL of complete medium (RPMI1640 medium with 10% FBS) was taken to resuspend the cell pellets, charged into a cell culture flask with a bottom area of 25 cm^2, and incubated in a cell incubator at 37° C., 95% humidity and 5% CO2. Cells were allowed to passage when the number of cells reached about 10^6 cells/mL. For cell passage, the old cell suspension was directly pipetted evenly, 1/5 of the cell suspension was kept, 4 mL of new complete medium was added, after pipetting evenly, the cell flask was placed in the cell incubator for further culturing. Cell plating was performed when the number of cells reached about 10^6 cells/mL again. For cell plating, 1/5 of the cell suspension was kept for further culturing as in the cell passage method, and the remaining 4/5 of the cell suspension was placed in a 15 mL centrifuge tube, detected for cell viability by Trypan blue exclusion method to ensure that cell viability was above 90%. A cell suspension with a density of 5.56×10^4 viable cells/mL was prepared with complete medium, and 90 μL of such cell suspension was added to a 96-well cell culture plate to obtain the cell density of 5000 viable cells/mL in the cell culture plate. A control group containing no cells, no compound and only complete medium (i.e. culture medium control) and a control group containing no compound but containing cells (i.e. cell control) were set. The cell plate was placed in a cell incubator overnight. The 10 mM compound stock solution in DMSO was first serially diluted with DMSO at a dilution factor of 3.16 times, to obtain 9 concentrations, and the 10th concentration was set as DMSO control without compound. Then, PBS was used to dilute the DMSO solutions of compounds of different concentrations, at a dilution factor of 100 times, so that the DMSO concentration in the compound solution of each concentration was 1%. Finally, 10 μL of each of the above solutions was added to the corresponding cell culture plate, so that the initial compound concentration was 10 μM, with the remaining concentrations being successively diluted at a dilution factor of 3.16 times, and the DMSO content in the cell culture plate was 0.1%. The cell plate was placed in a cell incubator and cultured for 72 hours. For endpoint detection, the CellTiter-Glo reagent was melted, and the cell plate was moved to room temperature to equilibrate for 30 minutes, added with 100 μL of CellTiter-Glo for each well, and shaken on an orbital shaker for 5 minutes to fully lyse the cells. […]

MKN45 cells = assay: Proliferation of MKN45 cells; assay type: cell-based; settings: Homo sapiens, MKN-45; Table 8
Experimental: MKN45 is a human poorly differentiated gastric cancer cell line with high MET expression. Cell proliferation experiments were performed according to literature methods (Zhang, D. et al. Bioorg. Med. Chem. 2013, 21, 6804; Riss, T. L.; Moravec, R. A.; Niles, A. L.; et al. Cell Viability Assays 2013 May 1 [Updated 2016 Jul. 1]. In: Sittampalam, G. S.; Grossman, A.; Brimacombe, K.; et al., editors. Assay Guidance Manual [Internet]. Bethesda (MD): Eli Lilly & Company and the National Center for Advancing Translational Sciences; 2004-. Available from: https://www.ncbi.nlm.nih.gov/books/NBK144065/).

[2] = Homo sapiens, KM12, Table 1-2, separate test

Q: For `N.N.[Cl][Pt][Cl]` [Cisplatin, reference compound], which IC50 (KM12 cells; Table 1, 72 hours) is on record?
A: 27300 nM

Q: `Cn1ncc2cc(Oc3ccc(NC(=O)c4ccc(OCC(F)(F)F)n(-c5ccc(F)cc5)c4=O)cc3F)c(-c3cn[nH]c3)cc21` [Example 17, N-(3-fluoro-4-(1-methyl-6-(1H-pyrazol-4-yl)-1H-indazol-5-yloxy)phenyl)-1-(4-fluorophenyl)-6-(2,2,2-trifluoroethoxy)-2-oxo-1,2-dihydropyidine-3-carboxamide] was tested. Which IC50 (KM12 cells; [2]) did it give?
A: 19 nM

Q: What about the IC50 [1] of the same compound?
A: 3.7 nM

Q: What about the IC50 (MKN45 cells) of the same compound?
A: 15 nM

Q: How did the IC50 (KM12 cells; [2]) turn out when `CCn1ncc2cc(Oc3ccc(NC(=O)c4ccc(OC5CC5)n(-c5ccc(F)cc5)c4=O)cc3F)c(-c3cn[nH]c3)cc21` [Example 25, N-(3-fluoro-4-(1-ethyl-6-(1H-pyrazol-4-yl)-1H-indazol-5-yloxy)phenyl)-1-(4-fluorophenyl)-6-cyclopropoxy-2-oxo-1,2-dihydropyridine-3-carboxamide] was run?
A: 29 nM

Q: What about the IC50 [1] of the same compound?
A: 6.3 nM

Q: For `CCn1ncc2cc(Oc3ccc(NC(=O)c4ccc(OCC(F)(F)F)n(-c5ccc(F)cc5)c4=O)cc3F)c(-c3cn[nH]c3)cc21` [Example 27, N-(3-fluoro-4-(1-ethyl-6-(1H-pyrazol-4-yl)-1H-indazol-5-yloxy)phenyl)-1-(4-fluorophenyl)-6-(2,2,2-trifluoroethoxy)-2-oxo-1,2-dihydropyidine-3-carboxamide], which IC50 [1] is on record?
A: 3 nM

Q: How did the IC50 (KM12 cells; Homo sapiens, KM12, 72 h, Table 1, 72 hours) turn out when `CN1CCN(c2ccc(C(=O)Nc3n[nH]c4ccc(Cc5cc(F)cc(F)c5)cc34)c(NC3CCOCC3)c2)CC1` [RXDX-101, reference compound] was run?
A: 5.1 nM
